Measurements as given in patent US8436004B2, “Bicycloaniline derivative” (MSD K.K., priority 2007, dated 2013).

System: Human colon cancer cells WiDr
Assay: Tumor growth inhibitory effect, WiDr subcutaneous xenograft in nude rats
Assay type: in vivo, F344/N Jcl-rnu nude rats
Protocol: Pharmacological Test 4 (Tumor Growth Inhibitory Effect)
Human colon cancer cells WiDr (obtained from ATCC) were implanted into the subcutaneous area of the back of F344/N Jcl-rnu nude rats. 12 days after the implantation, 5 mg/kg of gemcitabine (Gemzar, from Eli Lily) was intravenously administered to them; and after 24 hours, a test compound suspended in a solvent (0.5% methyl cellulose) was orally administered thereto. This was repeated once a week for 3 weeks. The tumor volume (0.5×major diameter×(minor diameter)^2) was measured on days 0, 3, 6, 10, 13, 17, 20, 24 and 27 (the first gemcitabine administration is on day 0). The relative tumor volume was calculated, based on the tumor volume on day 0, as 1. The tumor growth rate (% T/C) was obtained according to the formulae mentioned below.
In case where the tumor volume change from day 0 in the test compound administration group is more than 0 (>0): % T/C=(tumor volume change in the test compound group on days 3, 6, 10, 13, 17, 20, 24 and 27/tumor volume change in the control group on days 3, 6, 10, 13, 17, 20, 24 and 27)×100. In case where the tumor volume change from day 0 in the test compound administration group is less than 0 (<0): % T/C=(tumor volume change in the test compound group on days 3, 6, 10, 13, 17, 20, 24 and 27/tumor volume […] in the test compound group on day 0)×100.
Gemcitabine was administered on days 0, 7 and 14. The compound of Example 1 was administered on days 1, 8 and 15.

`Nc1ccn([C@@H]2O[C@H](CO)[C@@H](O)C2(F)F)c(=O)n1` [Gemcitabine, gemcitabine] was tested, and the “% T/C day 3” value (day 3, gemcitabine 5 mg/kg i.v. days 0, 7, 14, Example 1 15 mg/kg oral days 1, 8, 15, n=5) was 62%, the “% T/C day 6” value (day 6, gemcitabine 5 mg/kg i.v. days 0, 7, 14, Example 1 15 mg/kg oral days 1, 8, 15, n=5) was 67% and the “% T/C day 10” value (day 10, gemcitabine 5 mg/kg i.v. days 0, 7, 14, Example 1 15 mg/kg oral days 1, 8, 15, n=5) was 66%. For the same compound, the “% T/C day 13” value (day 13, gemcitabine 5 mg/kg i.v. days 0, 7, 14, Example 1 15 mg/kg oral days 1, 8, 15, n=5) was 64%, the “% T/C day 17” value (day 17, gemcitabine 5 mg/kg i.v. days 0, 7, 14, Example 1 15 mg/kg oral days 1, 8, 15, n=5) was 57% and the “% T/C day 20” value (day 20, gemcitabine 5 mg/kg i.v. days 0, 7, 14, Example 1 15 mg/kg oral days 1, 8, 15, n=5) was 49%. For the same compound, the “% T/C day 24” value (day 24, gemcitabine 5 mg/kg i.v. days 0, 7, 14, Example 1 15 mg/kg oral days 1, 8, 15, n=5) was 52%, the “% T/C day 27” value (day 27, gemcitabine 5 mg/kg i.v. days 0, 7, 14, Example 1 15 mg/kg oral days 1, 8, 15, n=5) was 54% and the “tumor growth rate, result in words” value (summary of Table 5) was “reduced the tumor growth rate”.
